These results are taken from patent US20220144847A1, “HETEROCYCLIC COMPOUND, PHARMACEUTICAL COMPOSITION COMPRISING SAME, PREPARATION METHOD THEREFOR, AND USE THEREOF” (Sichuan Kelun-Biotech Biopharmaceutical Co., Ltd., priority 2019, published 2022).

In one series the target is RET-WT (Homo sapiens, UniProt P07949). As to the kind of experiment: RET inhibition experiment (HTRF KinEASE-TK kit), wild-type RET enzyme. The class given is biochemical. The note with it: read-out: The IC50 (nM) for inhibiting RET-WT. The method, then: (§1) Experimental method: […] After incubation at room temperature for 40 min, TK antibody-cryptate and streptavidin-XL665 were added, and the test was performed after incubation at room temperature for 45 min. With the solvent group (DMSO) as the negative control and the buffer group (without RET enzyme) as the blank control, the relative inhibitory activity percentages (i.e., inhibition rates) of different concentrations of the compounds were computed as per the following formula: […] The relative inhibitory activity percentages of different concentrations of the compounds were plotted with respect to the compound concentrations, and the curve was fitted according to a four-parameter model to compute the IC50 value as per the following formula: y=min+(max-min)/(1+(x/IC50)^(-Hillslope)) where y is the relative inhibitory activity percentage, max is the maximum value of the fitted curve, min is the minimum value of the fitted curve, x is the logarithmic concentration of the compound, and Hillslope is the slope of the curve.
On the technique in general: TR-FRET usually uses a lanthanide donor and a delayed reading to cut background.

In the next series the target is RET-V804L (Homo sapiens, UniProt P07949, V804L). In words: RET inhibition experiment (HTRF KinEASE-TK kit), mutant RET-V804L. The series is classed as biochemical. The note with it: read-out: The IC50 (nM) for inhibiting RET-V804L. The method, then:
as §1

For a further series, the target named is VEGFR2 (Homo sapiens, UniProt P35968). In words: VEGFR2 inhibition experiment (HTRF KinEASE-TK kit). The note with it: read-out: IC50 for inhibiting VEGFR2. The class given is biochemical. Put shortly: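 HTRF KinEASE-TK format: enzyme and compound were preincubated 30 min at room temperature, then substrate and ATP added for 40 min, followed by cryptate antibody/streptavidin-XL665 detection for 45 min. Inhibition was normalised to DMSO and no-enzyme controls; IC50 from a four-parameter fit.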

A short description of series [1]: Pharmacokinetics and tissue distribution of compounds in rats. The class given is in vivo. The note with it: male, SD, rat, PO 5 mg/kg; for AUC(0-t): read-out: AUC AUClast; for Cmax: read-out: Peak concentration Cmax; for Kp: read-out: T/P Ratio of AUClast in tissue to plasma; for Tmax: read-out: Time to peak concentration Tmax. The method, then: By intragastric administration (PO) of BLU-667 (prepared according to Example 5 of WO2017/079140A1) and Compound 17 to male SD rats respectively, the plasma concentrations and the tissue concentrations of BLU-667 and Compound 17 in brains, lungs and thyroid of rats were determined to investigate the pharmacokinetic characteristics. The dosage of administration by PO was 5 mg/kg, and the solvent was 0.5% MC (methylcellulose). With administration by PO, blood samples were collected at different time points (0 h before administration, and 0.25 h, 0.5 h, 1 h, 2 h, 4 h, 6 h, 8 h, and 24 h after administration). The blood samples were anticoagulated with dipotassium edetate, and centrifuged to provide plasma samples, which were stored at −80° C. Rats were sacrificed by exsanguination from abdominal aorta at 0.5 h, 2 h, 8 h, and 24 h after PO administration. Brain, lung and thyroid were collected, washed, and homogenized with normal saline at a certain ratio, to provide tissue samples which were stored at −80° C. The plasma samples and tissue samples were processed with precipitated protein and then analyzed by LC-MS/MS. The pharmacokinetic parameters were computed using WinNonlin 6.3 software and using a non-compartmental model.

The test system of series [2] is human medullary thyroid carcinoma TT cells. In words: Efficacy test in mice, subcutaneous xenograft tumor of TT cells. The series is classed as in vivo, Balb/c-nu mouse. The note with it: 5 mg/kg, PO, BID; TT nude mouse xenograft. The method, then:
Experimental purpose: To evaluate the in vivo efficacy of Compound 17 and BLU-667 in a Balb/c-nu mouse model with a subcutaneous xenograft tumor of human medullary thyroid carcinoma TT cells.
Drug preparation: Compound 17 was dissolved in 0.1 M aqueous solution of H3PO4, and BLU-667 was dissolved in 0.1 M aqueous solution of HOAc, to prepare clear solutions (pH: about 4.0). An aqueous solution of H3PO4 at a pH of about 4.0 was used for the solvent control group. The mode of administration was PO, BID.
Tumor measurement: The tumor diameter was measured with a vernier caliper twice a week. The computing formula of the tumor volume is: V=0.5×a×b^2, where a represents a long diameter of the tumor, and b represents a short diameter of the tumor. Evaluation of tumor growth inhibition rate (TGI (%)) for tumor inhibition efficacy of the compounds: TGI (%)=[(1-(mean tumor volume of a treatment group at the end of drug administration-mean tumor volume of the treatment group at the commencement of drug administration))/(mean tumor volume of a solvent control group at the end of treatment-mean tumor volume of the solvent control group at the commencement of treatment)]×100%.
Statistical analysis: Prism Graphpad5.0 software was used for statistical analysis based on the relative tumor volume at the end of the experiment. The comparison between multiple groups was analyzed by two-way ANOVA, and p<0.05 was considered as a significant difference.
Experimental results: In the TT nude mouse xenograft model of human medullary thyroid carcinoma, Compound 17 has a significant […] anti-tumor effect at a dose of 5 mg/kg. […] Relative tumor growth rate T/C (%)=TRTV/CRTV×100%, where TRTV is the mean relative tumor volume of the test compound group, CRTV is the relative tumor volume of the solvent control group; and the relative tumor volume RTV=Vt/V0, where V0 is the mean tumor volume at the commencement of the administration, and Vt is the mean tumor volume measured on day t after the administration.

Read-outs that look alike come from different tables or passages of the source.

RET-WT, sequence (P07949 29-1114): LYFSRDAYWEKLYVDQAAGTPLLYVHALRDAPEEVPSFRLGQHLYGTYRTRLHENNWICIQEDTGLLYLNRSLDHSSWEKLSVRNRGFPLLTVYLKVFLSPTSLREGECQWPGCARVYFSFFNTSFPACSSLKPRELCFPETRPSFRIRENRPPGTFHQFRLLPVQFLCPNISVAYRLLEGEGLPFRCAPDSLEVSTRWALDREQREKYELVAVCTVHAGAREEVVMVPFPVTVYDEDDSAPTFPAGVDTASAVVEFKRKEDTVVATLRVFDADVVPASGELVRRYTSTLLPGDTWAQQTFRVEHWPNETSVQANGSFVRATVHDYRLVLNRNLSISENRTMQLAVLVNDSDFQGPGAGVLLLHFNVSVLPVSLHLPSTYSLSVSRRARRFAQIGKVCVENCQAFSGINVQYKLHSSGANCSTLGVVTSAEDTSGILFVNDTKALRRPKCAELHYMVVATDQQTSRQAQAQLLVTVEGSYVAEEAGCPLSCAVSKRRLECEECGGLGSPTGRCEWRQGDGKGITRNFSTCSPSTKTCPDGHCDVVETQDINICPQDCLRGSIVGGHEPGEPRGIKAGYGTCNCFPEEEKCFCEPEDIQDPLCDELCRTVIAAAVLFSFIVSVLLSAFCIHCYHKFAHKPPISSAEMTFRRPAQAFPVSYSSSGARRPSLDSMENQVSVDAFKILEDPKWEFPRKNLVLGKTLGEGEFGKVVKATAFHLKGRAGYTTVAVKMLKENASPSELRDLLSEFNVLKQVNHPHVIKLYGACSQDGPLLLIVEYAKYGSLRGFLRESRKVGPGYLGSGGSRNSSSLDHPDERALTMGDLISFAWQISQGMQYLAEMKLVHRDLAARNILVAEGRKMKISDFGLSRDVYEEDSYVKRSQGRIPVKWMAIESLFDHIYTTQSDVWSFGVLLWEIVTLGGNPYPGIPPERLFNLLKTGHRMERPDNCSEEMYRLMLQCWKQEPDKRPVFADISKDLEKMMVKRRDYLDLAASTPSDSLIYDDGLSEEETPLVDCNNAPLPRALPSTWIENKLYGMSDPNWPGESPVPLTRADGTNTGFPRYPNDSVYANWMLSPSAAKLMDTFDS
RET-V804L, sequence (P07949 29-1114 V804L): as the sequence (P07949 29-1114) above, with V776L counted along it
VEGFR2, sequence (P35968 20-1356, species assumed): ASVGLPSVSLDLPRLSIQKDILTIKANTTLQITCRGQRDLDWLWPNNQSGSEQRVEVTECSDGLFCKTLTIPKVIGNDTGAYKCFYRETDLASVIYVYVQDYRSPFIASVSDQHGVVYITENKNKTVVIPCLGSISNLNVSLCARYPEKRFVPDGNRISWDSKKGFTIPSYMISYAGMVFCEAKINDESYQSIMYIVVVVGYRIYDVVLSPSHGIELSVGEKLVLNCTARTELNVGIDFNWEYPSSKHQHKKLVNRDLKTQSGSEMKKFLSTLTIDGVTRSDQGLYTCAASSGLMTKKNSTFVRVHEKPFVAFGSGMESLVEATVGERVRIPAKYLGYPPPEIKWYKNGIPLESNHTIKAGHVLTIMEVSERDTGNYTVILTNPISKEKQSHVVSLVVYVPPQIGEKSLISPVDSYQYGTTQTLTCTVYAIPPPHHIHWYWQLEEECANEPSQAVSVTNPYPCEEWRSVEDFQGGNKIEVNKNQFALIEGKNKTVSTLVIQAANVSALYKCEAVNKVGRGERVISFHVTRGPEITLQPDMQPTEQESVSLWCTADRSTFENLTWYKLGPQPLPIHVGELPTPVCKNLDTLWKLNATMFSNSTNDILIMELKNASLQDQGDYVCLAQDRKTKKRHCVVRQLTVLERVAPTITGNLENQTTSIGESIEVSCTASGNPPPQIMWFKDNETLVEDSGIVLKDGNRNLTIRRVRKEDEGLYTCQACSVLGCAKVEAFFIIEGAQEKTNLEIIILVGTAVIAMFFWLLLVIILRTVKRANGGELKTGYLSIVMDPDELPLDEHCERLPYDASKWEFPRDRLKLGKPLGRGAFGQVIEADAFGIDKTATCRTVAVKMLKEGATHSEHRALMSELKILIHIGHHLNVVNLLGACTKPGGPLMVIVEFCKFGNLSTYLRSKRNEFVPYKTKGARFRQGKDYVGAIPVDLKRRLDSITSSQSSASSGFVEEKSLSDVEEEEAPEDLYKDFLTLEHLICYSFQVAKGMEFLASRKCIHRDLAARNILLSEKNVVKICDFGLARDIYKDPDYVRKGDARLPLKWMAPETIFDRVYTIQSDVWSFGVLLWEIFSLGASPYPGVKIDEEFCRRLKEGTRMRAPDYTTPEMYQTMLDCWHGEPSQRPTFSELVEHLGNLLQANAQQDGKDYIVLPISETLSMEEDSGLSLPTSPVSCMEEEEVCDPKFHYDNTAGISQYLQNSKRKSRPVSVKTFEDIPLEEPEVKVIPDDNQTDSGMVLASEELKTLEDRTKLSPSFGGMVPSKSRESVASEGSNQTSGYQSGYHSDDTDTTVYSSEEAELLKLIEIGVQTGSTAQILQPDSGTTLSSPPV

As usually defined, the IC50 is the concentration that gives 50% inhibition. For the compound `Cc1cc(Nc2cc(C)[nH]n2)nc(-c2ccc(N3CC4CC(C3)N4Cc3ccc(-n4cc(F)cn4)nc3)nc2)n1` [Compound 17, 2-(6-(6-((6-(4-fluoro-1H-pyrazol-1-yl)pyridin-3-yl)methyl)-3,6-diazabicyclo[3.1.1]heptan-3-yl)pyridin-3-yl)-6-methyl-N-(5-methyl-1H-pyrazol-3-yl)pyrimidin-4-amine], the IC50 at RET-WT is 1.32 ± 0.31 nM; at RET-V804L, 6.54 ± 2.43 nM; on VEGFR2, 63 ± 11.8 nM. Also, the AUC(0-t) in series [1] (brain) amounted to 1010 ng·h/mL; in series [1] (lung) it was 79600 ng·h/mL; in series [1] (plasma), 6790 ng·h/mL; in series [1] (thyroid), 11400 ng·h/mL. The Cmax in series [1] (brain) turned out to be 153 ng/mL; in series [1] (lung), 9620 ng/mL; in series [1] (plasma) it was 772 ng/mL; in series [1] (thyroid), 1870 ng/mL. The Kp in series [1] (brain) worked out at 0.15; in series [1] (lung), 11.7; in series [1] (plasma) it was 1; in series [1] (thyroid) it was 1.68. For the same compound, the Tmax in series [1] (brain) worked out at 2 h; in series [1] (lung), 2 h; in series [1] (plasma), 2 h; in series [1] (thyroid), 8.49 h. Also, the “Relative tumor growth rate T/C” value in series [2] amounted to 17.44%. The “Tumor growth inhibition rate TGI” value in series [2] turned out to be 131.36%.
